Source: article PMC10459693, “Toward Stability Enhancement of NTS1R-Targeted Radioligands: Structural Interventions on [^99mTc]Tc-DT1” (Pharmaceutics, 2023)
Square brackets hold non-standard residues; d marks the D form. Peptide text beside a SMILES is read from it. * marks the point of attachment. Palmitoyl = CCCCCCCCCCCCCCCC(=O)*; X1 = NCCNCC(CNCCN)C(=O)*

Biological target: T1, human NTS1R (Homo sapiens, UniProt P30989)
T1 construct: Cell membrane homogenates from WiDr cells were collected; host or cells: WiDr human colorectal adenocarcinoma cells (membrane homogenates)
T1 sequence (P30989 whole entry): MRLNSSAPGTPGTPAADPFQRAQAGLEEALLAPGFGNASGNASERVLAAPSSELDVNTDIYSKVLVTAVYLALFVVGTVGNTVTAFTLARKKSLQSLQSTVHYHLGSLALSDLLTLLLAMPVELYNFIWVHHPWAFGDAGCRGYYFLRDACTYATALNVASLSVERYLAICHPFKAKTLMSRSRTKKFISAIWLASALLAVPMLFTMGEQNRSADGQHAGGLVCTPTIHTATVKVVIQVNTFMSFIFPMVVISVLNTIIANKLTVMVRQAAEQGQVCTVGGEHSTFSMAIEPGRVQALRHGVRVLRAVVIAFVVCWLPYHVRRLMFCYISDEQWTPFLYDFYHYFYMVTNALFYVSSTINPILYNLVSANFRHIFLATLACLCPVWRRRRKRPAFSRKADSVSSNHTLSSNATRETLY
Assay: Competition binding against [^125I]I-Tyr^3-NT in WiDr cell membranes
Conditions: for IC50: displacement of [^125I]I-Tyr^3-NT, WiDr cell membranes, 1 h at 22 °C, mean ± sd
Experimental: Cell membrane homogenates from WiDr cells were collected and stored in Tris/EDTA (10 mM Tris, 0.1 mM EDTA, pH 7.4) solution at −80 °C, as previously described. On the day of the experiment, the aliquots thereof were thawed, combined, and diluted in cold binding buffer (BB: 50 mM HEPES, 5.5 mM MgCl2, 0.1 mg/mL bacitracin, 1% w/v BSA, pH 7.4). A dilution series of each test peptide (10^−12–10^−5 M) and a fresh solution of [^125I]I-Tyr^3-NT (~40,000 cpm/70 μL, 214 pM) were prepared and kept on ice. In each RIA tube per placed on ice (in triplicate for each concentration point), the following ice-cold solutions were added: test peptide solution (30 μL), the [^125I]I-Tyr^3-NT radioligand (70 μL), and membrane homogenate (200 μL). Tubes were incubated under constant stirring for 1 h at 22 °C in an Incubator-Orbital Shaker (MPM Instr. Srl; Bernareggio, Italy). The incubation was terminated by placing the tubes on ice and adding ice-cold washing buffer (10 mM HEPES, 150 mM NaCl, pH 7.4). Samples were rapidly passed through Whatman GF/B filters (presoaked for 1 h in BB) on a 48-sample Brandel Cell Harvester (Adi Hassel Ingenieur Büro, Munich, Germany). Separate filters were measured for radioactivity on the γ-counter, and the half maximal inhibition concentration (IC50) was calculated applying a non-linear one-site model (GraphPad Prism Software 6.0, San Diego, CA, USA).

Row | SMILES | IC50 | drop of binding affinity to the NTS1R compared to DT1 (by a power of)
1 | CCCCCCCCCCCCCCCC(=O)NCCCC[C@H](NC(=O)C(CNCCN)CNCCN)C(=O)N[C@@H](CCCNC(=N)N)C(=O)N[C@@H](CCCNC(=N)N)C(=O)N1CCC[C@H]1C(=O)N[C@@H](Cc1ccc(O)cc1)C(=O)N[C@H](C(=O)N[C@@H](CC(C)C)C(=O)O)[C@@H](C)CC [DT9] (X1-K(Palmitoyl)RRPYIL-OH) | 0.89 ± 0.7 nM | 
2 | CC[C@H](C)[C@H](NC(=O)[C@H](Cc1ccc(O)cc1)NC(=O)[C@@H]1CCCN1C(=O)[C@H](CCCNC(=N)N)NC(=O)[C@H](CCCNC(=N)N)NC(=O)CNC(=O)C(CNCCN)CNCCN)C(=O)N[C@@H](CC(C)C)C(=O)N[C@H](CC(N)=O)C(=O)O [DT7, N4-Gly-Arg-Arg-Pro-Tyr-Ile-Leu-DAsn-OH] (X1-GRRPYIL[dN]-OH) | 29.1 ± 4.11 nM | ~100
